Experiment [1] concerns MM cells. Briefly: Gene expression and proteomic profiling of IGF-1R inhibition. The settings on record: expression profiling, proteomic analyses, confirmatory assays. The format is cell-based, human. Here is the method:
Subsequent analysis of scanned image output files were analyzed with Affymetrix GeneChip Microarray Analysis Suite 5.0 software (Affymetrix), normalized and analyzed by hierarchical clustering, functional clustering and relevance network algorithms, as in previous studies. High-throughput global proteomic analysis of the signaling state of IGF-1R-inhibitor-treated MM cells was performed by multiplex-immunoblotting arrays using the KPKS-1.0 and KPSS-1.0 platforms, as previously described (Mitsiades C S et al. Semin Oncol. April 2003; 30(2): 156-60 and Mitsiades N et al. Blood. Mar. 15, 2003; 101(6): 2377-80).
Total RNA was extracted and purified with the Qiagen RNeasy kit (Qiagen, San Diego, Calif.). Five micrograms of total RNA was used in the first-strand cDNA synthesis with T7-d(T)24 primer ([…]-(dT)24) (SEQ ID NO: 1) and Superscript II (GIBCO-BRL, Rockville, Md.). The second-strand cDNA synthesis was carried out at 16° C. by adding Escherichia coli DNA ligase, E. coli DNA polymerase I, and RNase H to the reaction, followed by T4 DNA polymerase to blunt the ends of newly synthesized cDNA. The cDNA was purified through phenol/chloroform and ethanol precipitation. […] Scanned image output files were visually examined for major chip defects and hybridization artifacts and then analyzed with Affymetrix GeneChip® (array) Microarray Analysis Suite 5.0 software (Affymetrix). […]

Experiment [2] deals with SW579 papillary thyroid carcinoma cells. In words: VEGF ELISA, IGF-1-stimulated thyroid carcinoma cells. The format is cell-based, human. The settings on record: 750 nM; IGF-1 200 ng/mL in serum-free medium. Here is the method:
Flow cytometric analyses for IGF-1R, and IGF-2R were performed as previously described on a EPICS-XL-MCL flow cytometer (Beckman Coulter). Previously described protocols were applied for immunoblotting analyses; TRAP telomerase activity assay; 20S proteasome chymotryptic activity assay; DNA binding activity ELISAs for quantitative assessments of NF-κB and HIF-1a transcriptional activities. VEGF and IGF-1 ELISAs were performed according to manufacturer's instructions (R&D Systems, Minneapolis, Minn.).

The source of these data is patent US7781393B2, “Methods for inhibiting tumor cell growth” (Dana-Farber Cancer Institute, Inc., priority 2004, dated 2010).

As to `Nc1ncnc2c1c(-c1cccc(OCc3ccccc3)c1)cn2[C@H]1C[C@H](CN2CCCC2)C1` [ADW-742, trans-5-(3-benzyloxy-phenyl)-7-(3-pyrrolidin-1-ylmethyl-cyclobutyl)-7H-pyrrolo[2,3-d]pyrimidin-4-ylamine], in experiment [1], the “proliferative/anti-apoptotic molecular events associated with exposure to IGF-1 or serum” value was “suppressed”. In addition, in experiment [2], the “IGF-1-induced secretion of VEGF” value is “suppresses”.
